Results from the supplement of paper PMC10307832.

What was measured:
Assay in all cases: relative viability (nuclei count vs DMSO), 5 days (fraction); higher = more cells survive
NCI-H838 = tested on: NCI-H838
How it was run: (§1)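 The day after seeding in 1536-well plates, lung cancer cell lines were treated by pin tool with a single drug, or with a fixed anchor-drug dose together with five library-drug doses (not always all listed) in √10 steps. After 5 days, a combined fix-and-stain solution (final 0.05% Triton X-100, 1% formaldehyde, 1 ug/ml Hoechst) was added. Nuclei counted on 4× images gave relative viability as treated counts over vehicle counts, reported as the median of duplicate plates.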

ChaGo-K-1 = tested on: ChaGo-K-1
How it was run: as §1

HOP-62 = tested on: HOP-62
How it was run: as §1

SK-LU-1 = tested on: SK-LU-1
How it was run: as §1

NCI-H2023 = tested on: NCI-H2023
How it was run: as §1

NCI-H1793 = tested on: NCI-H1793
How it was run: as §1

NCI-H1944 = tested on: NCI-H1944
How it was run: as §1

NCI-H2405 = tested on: NCI-H2405
How it was run: as §1

HCC-15 = tested on: HCC-15
How it was run: as §1

NCI-H2228 = tested on: NCI-H2228
How it was run: as §1

ABC-1 = tested on: ABC-1
How it was run: as §1

HARA = tested on: HARA
How it was run: as §1

NCI-H1993 = tested on: NCI-H1993
How it was run: as §1

EMC-BAC-2 = tested on: EMC-BAC-2
How it was run: as §1

NCI-H23 = tested on: NCI-H23
How it was run: as §1

COR-L23 = tested on: COR-L23
How it was run: as §1

NCI-H2126 = tested on: NCI-H2126
How it was run: as §1

NCI-H358 = tested on: NCI-H358
How it was run: as §1

NCI-H1395 = tested on: NCI-H1395
How it was run: as §1

LC-2-ad = tested on: LC-2-ad
How it was run: as §1

SMILES: CC(=O)O[C@@]12CO[C@@H]1C[C@H](O)[C@@]1(C)C(=O)[C@H](O)C3=C(C)[C@@H](OC(=O)[C@H](O)[C@@H](NC(=O)OC(C)(C)C)c4ccccc4)C[C@@](O)([C@@H](OC(=O)c4ccccc4)[C@H]21)C3(C)C [Docetaxel] + CCNC(=O)c1noc(-c2cc(C(C)C)c(O)cc2O)c1-c1ccc(CN2CCOCC2)cc1 [Luminespib] (partner 0.01 µM)
- relative viability (NCI-H838; first compound 0.0002 µM): 0.389
- relative viability (NCI-H838; first compound 0.000632 µM): 0.3
- relative viability (NCI-H838; first compound 0.002 µM): 0.138
- relative viability (NCI-H838; first compound 0.006325 µM): 0.147
- relative viability (NCI-H838; first compound 0.02 µM): 0.112
- relative viability (ChaGo-K-1; first compound 0.0002 µM): 0.528
- relative viability (ChaGo-K-1; first compound 0.000632 µM): 0.468
- relative viability (ChaGo-K-1; first compound 0.002 µM): 0.251
- relative viability (ChaGo-K-1; first compound 0.006325 µM): 0.228
- relative viability (HOP-62; first compound 0.0002 µM): 0.938
- relative viability (HOP-62; first compound 0.000632 µM): 0.744
- relative viability (HOP-62; first compound 0.002 µM): 0.509
- relative viability (HOP-62; first compound 0.006325 µM): 0.282
- relative viability (SK-LU-1; first compound 0.0002 µM): 0.205
- relative viability (SK-LU-1; first compound 0.000632 µM): 0.218
- relative viability (SK-LU-1; first compound 0.006325 µM): 0.193
- relative viability (SK-LU-1; first compound 0.02 µM): 0.159
- relative viability (NCI-H2023; first compound 0.0002 µM): 0.682
- relative viability (NCI-H2023; first compound 0.000632 µM): 0.346
- relative viability (NCI-H2023; first compound 0.002 µM): 0.113
- relative viability (NCI-H2023; first compound 0.006325 µM): 0.105
- relative viability (NCI-H2023; first compound 0.02 µM): 0.0645
- relative viability (NCI-H1793; first compound 0.0002 µM): 0.174
- relative viability (NCI-H1793; first compound 0.002 µM): 0.238
- relative viability (NCI-H1793; first compound 0.006325 µM): 0.177
- relative viability (NCI-H1793; first compound 0.02 µM): 0.134
- relative viability (NCI-H1944; first compound 0.0002 µM): 0.724
- relative viability (NCI-H1944; first compound 0.000632 µM): 0.723
- relative viability (NCI-H1944; first compound 0.002 µM): 0.635
- relative viability (NCI-H1944; first compound 0.006325 µM): 0.249
- relative viability (NCI-H1944; first compound 0.02 µM): 0.114
- relative viability (NCI-H2405; first compound 0.0002 µM): 0.607
- relative viability (NCI-H2405; first compound 0.000632 µM): 0.603
- relative viability (NCI-H2405; first compound 0.002 µM): 0.486
- relative viability (NCI-H2405; first compound 0.006325 µM): 0.33
- relative viability (NCI-H2405; first compound 0.02 µM): 0.22
- relative viability (HCC-15; first compound 0.0002 µM): 0.35
- relative viability (HCC-15; first compound 0.000632 µM): 0.303
- relative viability (HCC-15; first compound 0.002 µM): 0.173
- relative viability (HCC-15; first compound 0.006325 µM): 0.182
- relative viability (HCC-15; first compound 0.02 µM): 0.12
- relative viability (NCI-H2228; first compound 0.0002 µM): 0.146
- relative viability (NCI-H2228; first compound 0.000632 µM): 0.145
- relative viability (NCI-H2228; first compound 0.002 µM): 0.129
- relative viability (NCI-H2228; first compound 0.006325 µM): 0.194
- relative viability (NCI-H2228; first compound 0.02 µM): 0.19
- relative viability (ABC-1; first compound 0.0002 µM): 0.619
- relative viability (ABC-1; first compound 0.000632 µM): 0.704
- relative viability (ABC-1; first compound 0.002 µM): 0.231
- relative viability (ABC-1; first compound 0.006325 µM): 0.352
- relative viability (ABC-1; first compound 0.02 µM): 0.338
- relative viability (HARA; first compound 0.0002 µM): 0.46
- relative viability (HARA; first compound 0.000632 µM): 0.124
- relative viability (HARA; first compound 0.002 µM): 0.0629
- relative viability (HARA; first compound 0.006325 µM): 0.0587
- relative viability (HARA; first compound 0.02 µM): 0.0441
- relative viability (NCI-H1993; first compound 0.0002 µM): 0.771
- relative viability (NCI-H1993; first compound 0.000632 µM): 0.783
- relative viability (NCI-H1993; first compound 0.002 µM): 0.616
- relative viability (NCI-H1993; first compound 0.006325 µM): 0.481
- relative viability (NCI-H1993; first compound 0.02 µM): 0.446
- relative viability (EMC-BAC-2; first compound 0.0002 µM): 1.15
- relative viability (EMC-BAC-2; first compound 0.000632 µM): 1.08
- relative viability (EMC-BAC-2; first compound 0.002 µM): 0.385
- relative viability (EMC-BAC-2; first compound 0.006325 µM): 0.368
- relative viability (EMC-BAC-2; first compound 0.02 µM): 0.238
- relative viability (NCI-H23; first compound 0.0002 µM): 0.208
- relative viability (NCI-H23; first compound 0.000632 µM): 0.224
- relative viability (NCI-H23; first compound 0.002 µM): 0.233
- relative viability (NCI-H23; first compound 0.006325 µM): 0.224
- relative viability (NCI-H23; first compound 0.02 µM): 0.18
- relative viability (COR-L23; first compound 0.0002 µM): 0.632
- relative viability (COR-L23; first compound 0.000632 µM): 0.622
- relative viability (COR-L23; first compound 0.002 µM): 0.131
- relative viability (COR-L23; first compound 0.006325 µM): 0.128
- relative viability (COR-L23; first compound 0.02 µM): 0.101
- relative viability (NCI-H2126; first compound 0.0002 µM): 0.914
- relative viability (NCI-H2126; first compound 0.000632 µM): 0.739
- relative viability (NCI-H2126; first compound 0.002 µM): 0.591
- relative viability (NCI-H2126; first compound 0.006325 µM): 0.403
- relative viability (NCI-H2126; first compound 0.02 µM): 0.255
- relative viability (NCI-H358; first compound 0.0002 µM): 0.314
- relative viability (NCI-H358; first compound 0.000632 µM): 0.305
- relative viability (NCI-H358; first compound 0.002 µM): 0.135
- relative viability (NCI-H358; first compound 0.006325 µM): 0.12
- relative viability (NCI-H358; first compound 0.02 µM): 0.098
- relative viability (NCI-H1395; first compound 0.0002 µM): 0.699
- relative viability (NCI-H1395; first compound 0.000632 µM): 0.771
- relative viability (NCI-H1395; first compound 0.002 µM): 0.496
- relative viability (NCI-H1395; first compound 0.006325 µM): 0.391
- relative viability (NCI-H1395; first compound 0.02 µM): 0.286
- relative viability (LC-2-ad; first compound 0.0002 µM): 0.777
- relative viability (LC-2-ad; first compound 0.000632 µM): 0.544
- relative viability (LC-2-ad; first compound 0.002 µM): 0.503
- relative viability (LC-2-ad; first compound 0.006325 µM): 0.445
